# Laboratory results published in paper PMC7048748, “Anxiolytic Drug FGIN-1-27 Ameliorates Autoimmunity by Metabolic Reprogramming of Pathogenic Th17 Cells” (Scientific Reports, 2020).
# How the values were obtained:
# Th17 cells = experiment: Intracellular metabolites by CE-MS; assay type: cell-based, mouse
# Experimental: CD4 T cells were differentiated under Th17 polarization conditions and were either treated with DMSO (control) or FGIN-1-27. The error bars represent SD. (a) Genomic browser screenshots of IL-17a, IL-17f and Rorc loci depicting normalized RNA-seq read coverage (RPM) in Th17 cells treated with DMSO or FGIN-1-27 for 24 hours. […] (c) Heat map showing differentially expressed genes encoding glycolytic enzymes in Th17 cells treated with DMSO or FGIN-1-27 for 24 hours (d) Glycolytic metabolites measured in Th17 cells treated with DMSO or FGIN-1-27 for 72 hours. (e) Metabolites in the TCA cycle were measured in Th17 cells treated with DMSO or FGIN-1-27 for 72 hours.
# 8 million cells treated with either DMSO or FGIN-1-27 were used for extraction of intracellular metabolites. The cells were washed twice with 5% mannitol and treated with methanol to inactivate the enzymes. Next, the cell extract was treated with Milli-Q water containing internal standards (H3304-1002, Human Metabolome Technologies, inc., Tsuruoka, Japan) and left at rest for another 30 s. The extract was obtained and centrifuged at 2,300 ×g and 4 °C for 5 min and then 800 µL of upper aqueous layer was centrifugally filtered through a Millipore 5-kDa cutoff filter at 9,100 ×g and 4 °C for 120 min to remove proteins. The filtrate was centrifugally concentrated and re-suspended in 50 µL of Milli-Q water for CE-MS analysis. Cationic compounds were measured in the positive mode of CE-TOFMS and anionic compounds were measured in the positive and negative modes of CE-MS/MS according to the methods developed by Soga, et al.[39],[40]. Peaks detected by CE-TOFMS and CE-MS/MS were extracted using automatic integration software (MasterHands, Keio University, Tsuruoka, Japan and MassHunter Quantitative Analysis B.04.00, Agilent Technologies, Santa Clara, CA, USA, respectively) in order to obtain peak information including m/z, migration time (MT), and peak area. The peaks were annotated with putative metabolites from the HMT metabolite database based on their MTs in CE and m/z values determined by TOFMS. The tolerance range for the peak annotation was configured at ±0.5 min for MT and ±10 ppm for m/z. In addition, concentrations of metabolites were calculated by normalizing the peak area of each metabolite with respect to the area of the internal standard and by using standard curves, which were obtained by three-point calibrations. Hierarchical cluster analysis (HCA) and principal component analysis (PCA) were performed by Human Metabolome proprietary software, PeakStat and SampleStat, respectively. Detected metabolites were plotted on metabolic pathway maps using VANTED (Visualization and Analysis of Networks containing Experimental Data) software.
# ZAP70 = experiment: Phospho ZAP70 staining after anti-CD3/CD28 stimulation; assay type: cell-based, mouse; details: 10 μM, 24 hours
# Experimental: The following day, cells were treated with either DMSO or of FGIN-1-27 (10 μM). For phospho-ZAP70 analyses, cells were stained after 24 hours of treatment using 10 μg/ml of biotinylated anti-CD3 (145-2C11, BD Biosciences) and anti-CD28 (37.51, BD Biosciences) antibodies on ice for 15 minutes, washed, and stimulated in presence of 20 μg/ml of Streptavidin for 10 minutes at 37 degrees. Cells were then fixed in 2% PFA, permeabilized in Methanol/Acetone and stained with anti-phospho ZAP70 antibody (n3kobu5, eBioscience) and anti-CD4 (RM4-5, eBioscience). For phospho-STAT3 analyses, cells were cultured for additional 24 hours in IL-6 free media, before stimulation with 100 ng/ml of mIL-6 for 30 minutes. Cells were then fixed in 2% PFA, permeabilized in Methanol/Acetone and stained with anti-phospho-STAT3 antibody (4/P-STAT3, BD Biosciences) and anti-CD4. Dead cells were excluded using Live/Dead […] (Thermo Fisher) staining prior to stimulation. page 3: Supplementary Figur es Fig S1 (a) Genomic browser screenshot of Tspo depicting normalized RNA-seq read coverage (RPM) in different T cell subsets. Data were downloaded from NCBI GEO (accession number GSE40918) and processed as in Figure 4A. […] (g) Transcript levels for S ta t3 after 24 hours of treatment with DMSO or FGIN-1-27 quantified by qPCR. […]
structure (smiles),measurement,setting,value
"CCCCCCN(CCCCCC)C(=O)Cc1c(-c2ccc(F)cc2)[nH]c2ccccc12 [FGIN-1-27, N, N-di-n-hexyl 2-(4-fluorophenyl) indole-3-acetamide]","TCA cycle intermediates (citric acid, cis-aconitic acid, 2-hydroxyglutaric acid, malic acid)",Th17 cells; 72 hours,additionally reduced
same,lactate,Th17 cells; 72 hours,unchanged levels
same,pyruvate,Th17 cells; 72 hours,lower levels
same,amino acids,Th17 cells; 72 hours post compound treatment,significant increase
same,"upper glycolytic intermediates (F6P, F1,6P, 3-PG, 2-PG)","Th17 cells; 72 hours, vs DMSO",substantially reduced
same,phosphorylation of ZAP70,ZAP70,did not phosphorylate ZAP70
